From US8536191B2 (priority 2010, dated 2013) come the findings set out here.

Data set [1] in a line: Form conversion upon heating (VT-XRPD). The data set is classed as physicochemical. As to conditions: before melting, HCl. Here is the method: Variable-temperature X-ray powder diffraction (VT-XRPD) analysis was performed on a Shimadzu XRD-6000 X-ray powder diffractometer equipped with an Anton Paar HTK 1200 high temperature stage. The sample was packed in a ceramic holder and analyzed from 2.5 to 40°2θ at 3°/min (0.4 sec/0.02° step). The heating rate was 10° C./min. Cooling was done by shutting off the furnace. A silicon standard was analyzed to check the instrument alignment. Temperature calibration was performed using vanillin and sulfapyridine standards. Data were collected and analyzed using XRD-6100/7000 v. 5.0. In house software (Pattern Match, SSCI Inc., An Aptuit Company) was used to generate and edit the peak lists. The value of each peak position represents the value at the apex of the peak. In the tables which follow herein, the PXRD peak lists are presented for each solid form along with the conversion to ‘d’ value (assuming a mean Cu Kα wavelength of 1.5418 Å) and relative peak intensities scaled to 100. The relative intensity (“R.I.”) of each peak is shown, wherein Relative Intensity is the ratio of the height of each peak compared to the highest peak, which is designated as 100%.

A short description of data set [2]: Physical stability under mechanical stress (compression, grinding, milling), checked by X-ray powder diffraction. The format is physicochemical. The method, then:
The crystalline forms of nalbuphine HCl were identified by their powder X-ray diffraction (PXRD) peaks/pattern. PXRD analyses of crystalline Forms A, B, C, D, F, G, H, I, K and amorphous Form Z were performed using an Inel XRG-3000 diffractometer equipped with a CPS (Curved Position Sensitive) detector with a 2θ range of 120°. Real time data were collected using Cu—Kα radiation starting at approximately 4°2θ at a resolution of 0.03°2θ. The tube voltage and amperage were set to 40 kV and 30 mA, respectively. The monochromator slit was set at 5 mm by 160 μm. […] The sample was prepared for analysis by packing into a thin-walled glass capillary. The capillary was mounted onto a goniometer head that is motorized to permit spinning of the capillary during data acquisition. Instrument calibration was performed using a silicon reference standard.

Data set [3] in a line: Physical stability on drying at 60° C. As to conditions: dried at 60° C.

Read-outs that look alike come from different tables or passages of the source.

`Cl.Oc1ccc2c3c1O[C@H]1[C@@H](O)CC[C@@]4(O)[C@@H](C2)N(CC2CCC2)CC[C@]314` [Form D, nalbuphine HCl]: in data set [1], the “temperature of conversion to Form F upon heating” value (“temperature of conversion” below) was “about 180 °C”.
With `Cl.Oc1ccc2c3c1O[C@H]1[C@@H](O)CC[C@@]4(O)[C@@H](C2)N(CC2CCC2)CC[C@]314` [Form F, nalbuphine HCl], the “form change at extremely high humidity” value (85% RH) is recorded as “converts to Form B (dihydrate)”.
Consider `Cl.Oc1ccc2c3c1O[C@H]1[C@@H](O)CC[C@@]4(O)[C@@H](C2)N(CC2CCC2)CC[C@]314` [Form A], for which the figures for the “form change under mechanical stress” value in data set [2] (compression or dry grinding) and in data set [2] (wet grinding) were “converting to Form C” and “Form B”, respectively. Also, the “effect of further grinding on crystallinity” value in data set [2] (further grinding, X-ray powder diffraction) is “some loss of crystallinity and formed partially amorphous material”. For the same compound, the “form change at extremely high humidity” value (97% RH, hydrochloride) was “Form B (dihydrate)”.
On to `Cl.Oc1ccc2c3c1O[C@H]1[C@@H](O)CC[C@@]4(O)[C@@H](C2)N(CC2CCC2)CC[C@]314` [Form C, nalbuphine HCl], for which, in data set [1], the “temperature of conversion” value was determined as 200 °C. Moreover, the “form change at extremely high humidity” value (97% RH) is recorded as “converts to Form B (dihydrate)”.
`Cl.Oc1ccc2c3c1O[C@H]1[C@@H](O)CC[C@@]4(O)[C@@H](C2)N(CC2CCC2)CC[C@]314` [Form B, nalbuphine HCl]: in data set [2] (milled, X-ray powder diffraction), the “physical stability when milled” value is “physically unstable when milled, losing its crystallinity”. In data set [1], the “temperature of conversion” value is “about 190 °C”. In addition, in data set [3], the “physical stability when dried” value is given as “mostly converting to Form C (monohydrate)”.
